{"source": "patent US7736861B1", "about": "“Tivozanib response prediction” (AVEO Pharmaceuticals, Inc., priority 2009, dated 2010)", "key": {"[1]": {"test_system": "murine breast tumors (Her2-dependent, BH archive)", "test": "murine breast tumor response to tivozanib (BH archive tumors transplanted subcutaneously in NCr nude mice)", "type": "in vivo, mouse", "description": "A library of more than 100 murine breast tumors (BH archive) was used to identify tumors that are sensitive to tivozanib (responders) and tumors that are resistant to tivozanib (non-responders). The BH archive was established by in vivo propagation and cryopreservation of primary tumor material from more than 100 spontaneous murine breast tumors derived from engineered chimeric mice that develop Her2-dependent, inducible spontaneous breast tumors. The mice were produced essentially as follows.\nTumor cells were isolated by physical disruption of the tumors using cell strainers. Typically 1×10^5 cells were mixed with matrigel (50:50 volume) and injected subcutaneously into female NCr nu/nu mice on upper dorsal region between the shoulder blades. When these tumors grew to approximately 500 mm^3, which typically required 2 to 4 weeks, they were collected for further propagation, drug response testing, and analysis. Analysis included microarray profiling, general histopathology, and IHC (CD31 for tumor vasculature, Ki67 for tumor cell proliferation).\nEvaluation of tumor response to tivozanib was performed essentially as follows. Subcutaneously transplanted tumors were established by injecting physically disrupted tumor cells (mixed with Matrigel) into 7 week-old female NCr nude mice. When the tumors reached approximately 200-400 mm^3, 30 tumor-bearing mice were randomized into three groups. Group 1 received vehicle. Group 2 received tivozanib at 5 mg/kg daily by oral gavage. Group 3 received tivozanib at 20 mg/kg daily by oral gavage. Tumors were measured twice per week by a caliper, and tumor volume was calculated. At the end of the treatment, tumors were collected for histopathological analysis and IHC analysis.\nBased on tumor growth inhibition and typical histopathological and IHC (CD31) characteristics for angiogenesis inhibition, responders and non-responders were identified. […] The variation in response was expected, because the mouse model tumors had arisen spontaneously, and therefore they were expected to contain differing sets of random mutations that had led to tumorigenesis, including tumor angiogenesis. Such variation in response was desirable, because it was similar to the variation in naturally occurring human tumors, and thus enabled identification of tivozanib-responsive tumors and tivozanib-resistant tumors for use in identifying the molecular signature or tivozanib responsiveness."}, "VEGF receptor 3": {"target": "VEGF receptor 3 (Homo sapiens, UniProt P35916)", "sequence (P35916 25-1363)": "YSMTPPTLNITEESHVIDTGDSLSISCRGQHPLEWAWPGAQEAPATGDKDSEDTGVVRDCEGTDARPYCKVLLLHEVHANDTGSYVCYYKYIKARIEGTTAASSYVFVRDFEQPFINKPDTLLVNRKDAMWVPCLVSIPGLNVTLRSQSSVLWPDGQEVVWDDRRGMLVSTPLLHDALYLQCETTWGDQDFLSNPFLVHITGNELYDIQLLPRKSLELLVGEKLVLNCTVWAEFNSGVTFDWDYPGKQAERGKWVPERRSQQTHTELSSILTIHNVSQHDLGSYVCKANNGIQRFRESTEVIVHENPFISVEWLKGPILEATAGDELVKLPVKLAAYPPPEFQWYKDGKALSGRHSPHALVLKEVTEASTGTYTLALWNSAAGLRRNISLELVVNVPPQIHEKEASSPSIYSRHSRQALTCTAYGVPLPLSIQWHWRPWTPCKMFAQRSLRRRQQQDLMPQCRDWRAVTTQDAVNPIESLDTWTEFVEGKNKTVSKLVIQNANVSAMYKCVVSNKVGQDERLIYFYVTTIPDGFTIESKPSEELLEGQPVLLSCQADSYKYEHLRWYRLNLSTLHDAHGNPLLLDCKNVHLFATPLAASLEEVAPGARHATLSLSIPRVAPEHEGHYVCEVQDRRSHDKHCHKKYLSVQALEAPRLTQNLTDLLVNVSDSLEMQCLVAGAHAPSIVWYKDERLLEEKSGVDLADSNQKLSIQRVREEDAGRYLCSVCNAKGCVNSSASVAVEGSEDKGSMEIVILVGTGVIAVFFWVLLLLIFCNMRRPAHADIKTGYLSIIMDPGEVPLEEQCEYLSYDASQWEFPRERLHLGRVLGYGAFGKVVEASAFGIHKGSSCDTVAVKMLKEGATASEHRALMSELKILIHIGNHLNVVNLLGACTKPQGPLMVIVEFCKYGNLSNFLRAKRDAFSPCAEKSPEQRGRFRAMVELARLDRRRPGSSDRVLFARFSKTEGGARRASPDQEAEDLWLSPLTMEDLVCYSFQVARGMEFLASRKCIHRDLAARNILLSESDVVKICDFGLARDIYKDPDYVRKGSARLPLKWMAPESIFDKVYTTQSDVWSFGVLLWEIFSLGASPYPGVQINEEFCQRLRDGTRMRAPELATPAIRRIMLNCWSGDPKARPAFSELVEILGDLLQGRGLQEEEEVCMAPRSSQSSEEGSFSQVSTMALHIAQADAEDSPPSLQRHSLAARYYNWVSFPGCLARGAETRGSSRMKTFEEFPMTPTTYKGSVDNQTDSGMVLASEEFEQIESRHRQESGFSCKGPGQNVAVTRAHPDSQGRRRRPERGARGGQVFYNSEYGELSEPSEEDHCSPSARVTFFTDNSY", "conditions": "Nakamura et al., 2006; cited from earlier work"}, "preclinical models": {"test_system": "preclinical models", "conditions": "Nakamura et al., 2006; cited from earlier work"}, "[2]": {"conditions": "272-patient Phase 2 clinical trial; Bhargava et al., 2009; cited from earlier work"}, "[3]": {"conditions": "of 26 individual murine breast tumors, FIG. 1"}}, "data": [{"smiles": "COc1cc2nccc(Oc3ccc(NC(=O)Nc4cc(C)on4)c(Cl)c3)c2cc1OC", "note": "[tivozanib, N-{2-chloro-4-[(6,7-dimethoxy-4-quinolyl)oxy]-phenyl}-N′-(5-methyl-3-isoxazolyl)urea]", "values": [{"measurement": "variation in response among tumors", "setting": "[1]; 5 or 20 mg/kg daily by oral gavage", "result": "significant tumor-to-tumor variation in response"}, {"measurement": "number of tumors classified as non-responsive (tivozanib resistant tumors)", "setting": "[1]; [3]", "result": 18}, {"measurement": "number of tumors classified as responsive (tivozanib sensitive tumors)", "setting": "[1]; [3]", "result": "eight"}, {"measurement": "tumor progression by caliper measurement", "setting": "[1]; responder tumors, 5 mg/kg daily by oral gavage", "result": "no tumor progression"}, {"measurement": "tumor killing (by histology)", "setting": "[1]; responder tumors, 5 mg/kg daily by oral gavage, except the peripheries", "result": "close to complete tumor killing"}, {"measurement": "inhibitory activity", "setting": "VEGF receptor 3", "result": "picomolar"}, {"measurement": "antitumor activity", "setting": "preclinical models", "result": "exhibits antitumor activity"}, {"measurement": "interim results of clinical trial", "setting": "[2]", "result": "positive interim results"}]}]}
